# pIC50: −log10 of the molar value. Like-named read-outs stand apart in the source and are kept apart here.
# Legend:
# [1] = target: T1, reuptake of noradrenaline (NA) in synaptosomes (Rattus norvegicus, UniProt Q9WTR4); test: Inhibition of noradrenaline (NA) reuptake in synaptosomes; format: biochemical; conditions: 3H-NA, read-out: NA-uptake IC50
# T1 construct: in synaptosomes as described in WO 97/16451; from tissue
# Excerpt: (§1) Compounds of the invention may be tested for their ability to inhibit reuptake of the monoamines dopamine, noradrenaline and serotonin in synaptosomes e.g. such as described in WO 97/30997. Based on the balanced activity observed in these tests the compound of the invention is considered useful for the treatment, prevention or alleviation of a disease or a disorder or a condition of a mammal, including a human, which disease, disorder or condition is responsive to inhibition of monoamine neurotransmitter re-uptake in the central nervous system.
# (§2) A number of compounds were tested for their ability to inhibit the reuptake of the monoamine neurotransmitters dopamine (DA) noradrenaline (NA) and serotonine (5-HT) in synaptosomes as described in WO 97/16451.
# (§3) The test values are given as IC50 (the concentration (μM) of the test substance which inhibits the specific binding of ^3H-DA, ^3H-NA, or ^3H-5-HT by 50%).
# [2] = target: T2, reuptake of serotonine (5-HT) in synaptosomes (Rattus norvegicus, UniProt P31652); test: Inhibition of serotonine (5-HT) reuptake in synaptosomes; format: biochemical
# T2 construct: in synaptosomes as described in WO 97/16451; from tissue
# T2 sequence (P31652 whole entry): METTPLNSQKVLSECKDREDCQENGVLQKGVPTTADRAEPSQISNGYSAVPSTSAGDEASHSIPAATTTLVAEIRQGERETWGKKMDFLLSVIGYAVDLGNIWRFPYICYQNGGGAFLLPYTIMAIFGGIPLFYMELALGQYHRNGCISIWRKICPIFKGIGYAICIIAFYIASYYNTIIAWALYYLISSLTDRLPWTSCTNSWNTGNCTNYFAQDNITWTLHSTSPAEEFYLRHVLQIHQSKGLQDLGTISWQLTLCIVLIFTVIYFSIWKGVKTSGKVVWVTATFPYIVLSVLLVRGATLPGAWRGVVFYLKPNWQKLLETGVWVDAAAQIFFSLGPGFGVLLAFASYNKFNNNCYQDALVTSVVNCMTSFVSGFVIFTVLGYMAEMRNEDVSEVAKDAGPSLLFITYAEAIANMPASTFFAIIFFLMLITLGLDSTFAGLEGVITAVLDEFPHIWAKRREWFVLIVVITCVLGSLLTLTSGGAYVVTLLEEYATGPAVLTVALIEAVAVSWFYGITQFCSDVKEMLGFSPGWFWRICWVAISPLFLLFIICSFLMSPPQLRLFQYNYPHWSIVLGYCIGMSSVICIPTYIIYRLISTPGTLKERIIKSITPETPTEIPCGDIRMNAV
# Excerpt: as §1, §2, §3
# [3] = target: T3, reuptake of dopamine (DA) in synaptosomes (Rattus norvegicus, UniProt P23977); test: Inhibition of dopamine (DA) reuptake in synaptosomes; format: biochemical; conditions: 3H-DA, read-out: DA-uptake IC50
# T3 construct: in synaptosomes as described in WO 97/16451; from tissue
# T3 sequence (P23977 whole entry): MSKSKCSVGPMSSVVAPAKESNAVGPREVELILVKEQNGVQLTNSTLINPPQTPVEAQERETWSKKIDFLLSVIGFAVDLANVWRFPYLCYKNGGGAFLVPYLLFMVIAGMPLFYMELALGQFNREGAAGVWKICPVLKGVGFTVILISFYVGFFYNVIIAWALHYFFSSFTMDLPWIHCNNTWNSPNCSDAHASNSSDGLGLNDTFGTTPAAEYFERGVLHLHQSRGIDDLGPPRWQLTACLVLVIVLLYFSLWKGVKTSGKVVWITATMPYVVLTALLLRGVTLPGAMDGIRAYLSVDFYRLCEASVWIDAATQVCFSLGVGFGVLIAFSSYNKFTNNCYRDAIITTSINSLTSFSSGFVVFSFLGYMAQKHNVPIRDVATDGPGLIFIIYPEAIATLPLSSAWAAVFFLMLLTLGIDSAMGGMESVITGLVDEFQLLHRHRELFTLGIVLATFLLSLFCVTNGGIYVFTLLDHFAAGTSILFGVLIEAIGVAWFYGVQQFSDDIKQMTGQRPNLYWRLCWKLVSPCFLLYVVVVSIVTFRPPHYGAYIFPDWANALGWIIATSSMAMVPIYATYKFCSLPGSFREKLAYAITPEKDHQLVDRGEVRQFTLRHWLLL
# Excerpt: as §1, §2, §3
# [4] = synaptosomes, 3H-5-HT, read-out: 5-HT-uptake IC50
# T1 sequence (Q9WTR4 1-597): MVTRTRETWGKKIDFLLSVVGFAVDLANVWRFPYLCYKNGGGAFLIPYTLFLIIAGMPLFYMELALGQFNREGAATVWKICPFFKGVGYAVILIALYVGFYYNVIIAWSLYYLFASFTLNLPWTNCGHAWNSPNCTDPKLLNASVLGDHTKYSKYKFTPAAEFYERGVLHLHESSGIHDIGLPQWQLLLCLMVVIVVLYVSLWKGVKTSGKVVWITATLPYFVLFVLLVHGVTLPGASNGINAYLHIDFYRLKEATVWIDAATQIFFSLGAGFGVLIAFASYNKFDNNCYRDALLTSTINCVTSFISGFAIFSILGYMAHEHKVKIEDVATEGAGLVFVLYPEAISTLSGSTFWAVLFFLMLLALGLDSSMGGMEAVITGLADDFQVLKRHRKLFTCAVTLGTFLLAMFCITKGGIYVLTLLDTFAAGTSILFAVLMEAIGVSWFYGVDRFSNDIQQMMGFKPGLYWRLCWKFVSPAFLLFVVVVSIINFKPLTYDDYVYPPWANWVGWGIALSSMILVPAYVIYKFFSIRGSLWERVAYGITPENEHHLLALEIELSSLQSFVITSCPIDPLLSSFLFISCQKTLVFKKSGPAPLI
Structure (SMILES),melting point,pIC50 [1],pIC50 [3],"pIC50 [2, 4]",pIC50 [2]
COc1ccc2cc(C3=CCC4(CC3)CCN(C)CC4)ccc2c1 [9-(6-Methoxy-naphthalen-2-yl)-3-methyl-3-aza-spiro[5.5]undec-8-ene],146.9 to 149.5 °C,–,–,–,–
"Brc1cccc(C2=CCC3(CCNCC3)CC2)n1 [2nd last compound of method A, 9-(6-Bromo-pyridin-2-yl)-3-aza-spiro[5.5]undec-8-ene]",161.3 to 162.8 °C,6.00,5.70,–,7.74
CN1CCC2(CC=C(c3cc4ccccc4o3)CC2)CC1.O=C(O)/C=C/C(=O)O,224.2 to 226.1 °C,–,–,–,–
CN1CCC2(CC=C(c3cc4ccccc4s3)CC2)CC1 [9-Benzo[b]thiophen-2-yl-3-methyl-3-aza-spiro[5.5]undec-8-ene],89.7 to 91.2 °C,–,–,–,–
C1=C(c2cc3ccccc3o2)CCC2(C1)CCNCC2.O=C(O)C(F)(F)F,215.7 to 217.3 °C,–,–,–,–

# More lines, main results first:
melting point,pIC50 [1],pIC50 [3],"pIC50 [2, 4]",Structure (SMILES),pIC50 [2]
137.1 to 141.3 °C,–,–,–,C1=C(c2ccc3ccccc3c2)CCC2(C1)CCNCC2 [9-Naphthalen-2-yl-3-aza-spiro[5.5]undec-8-ene],–
107.3 to 110.2 °C,6.24,5.92,7.70,"C1=C(c2cc3ccccc3s2)CCC2(C1)CCNCC2 [2nd compound of method A, 9-Benzo[b]thiophen-2-yl-3-aza-spiro[5.5]undec-8-ene]",–
104.2 to 107.1 °C,–,–,–,Clc1ccc(C2=CCC3(CCNCC3)CC2)cc1,–
146.9 to 149.5 °C,6.92,7.42,7.80,"COc1ccc2cc(C3=CCC4(CCNCC4)CC3)ccc2c1 [4th compound of method A, 9-(6-Methoxy-naphthalen-2-yl)-3-aza-spiro[5.5]undec-8-ene]",–
182 to 185 °C,–,–,–,COc1cc(C2=CCC3(CCNCC3)CC2)ccc1Cl [9-(4-Chloro-3-methoxy-phenyl)-3-aza-spiro[5.5]undec-8-ene],–

# From US8093388B2, “3-aza spiro[5,5]undec-8-ene derivatives and their use as monoamine neurotransmitter re-uptake inhibitors” (Neurosearch A/S, priority 2005, dated 2012)
